This note sets out measurements from patent US9271948B2, “Agent for improving vesicourethral dyssynergia” (TAIHO PHARMACEUTICAL CO., LTD., priority 2013, dated 2016).

Common to all, as to assay type: in vivo
In test [1] the test system is dysuria model rat (STZ-treated female Wistar rats). The test is described as follows: Effects of cholinergic agent and α1 blocker on vesicourethral dyssynergia of dysuria model rat (Comparative Example 2). Particulars: STZ model four weeks after preparation; bethanechol 1 mg/kg i.v., tamsulosin 0.3 mg/kg i.v.; under urethane anesthesia; vs control (physiological saline). Here is the method: The effects of a cholinergic agent (detrusor contracting agent: bethanechol) and an al blocker (urethra relaxation agent: tamsulosin) on vesicourethral dyssynergia were evaluated.
The dysuria models in the present example were prepared by treating 10-week-old female Wistar rats with STZ (65 mg/kg, i.p.). The Sham group was prepared by treating the rats with a citric acid buffer solution instead of STZ. Four weeks after the preparation of the models, the intravesical and urethral pressure was measured under urethane anesthesia, thereby evaluating the effects of the test drugs (vehicle: physiological saline solution, bethanechol 1 mg/kg i.v., and tamsulosin 0.3 mg/kg i.v.) with regard to the cooperation of the bladder and the urethra.

For test [2] the test system is unchanged. The experiment in a line: Effect on maximum voiding quantity in dysuria model rat (Test Example 2). Conditions: 30 mg/kg p.o. twice a day for four weeks, under urethane anesthesia, Sham 1.45 ± 0.14, Control 2.25 ± 0.68, *p < 0.05 vs. control. On the procedure: The dysuria models in this example were prepared in the same manner as in Test Example 1 by treating 10-week-old female Wistar rats with STZ (65 mg/kg, i.p.). The test drugs (vehicle: 6% Gelucire, Compound 1 of the present invention 30 mg/kg) were orally administered to each group after four weeks from the preparation of the models (at a time dysuria is assumed to be developed) twice a day for four weeks. On the day following the final administration, the maximum voiding quantity was measured under urethane anesthesia.

For test [3] the test system is unchanged. The test is described as follows: Effect of ameliorating vesicourethral dyssynergia in dysuria model rat (Test Example 1). Conditions: STZ 65 mg/kg i.p. model; 30 mg/kg p.o. twice a day for four weeks starting four weeks after model preparation; measured under urethane anesthesia; control (6% Gelucire) 3.7±0.7. Here is the method:
The effect of 3-(15-hydroxypentadecyl)-2,4,4-trimethyl-2-cyclohexene-1-one (hereinafter referred to as “Compound 1 of the present invention”) on vesicourethral dyssynergia was evaluated.
The dysuria models in this example were prepared by treating 10-week-old female Wistar rats with streptozotocin (hereinafter referred to as STZ; in an amount of 65 mg/kg, i.p.). The Sham group was prepared by treating the rats with a citric acid buffer solution instead of STZ. The test drugs (vehicle: 6% Gelucire, Compound 1 of the present invention 30 mg/kg) were orally administered to each group after four weeks from the preparation of the models (at a time dysuria is assumed to be developed) twice a day for four weeks. On the day following the final administration, the intravesical and urethral pressure was measured under urethane anesthesia, thereby evaluating the cooperation of the bladder and the urethra.
Further, in contrast to the control group receiving vehicle (6% Gelucire) having a time lag of 3.7±0.7 seconds, the time lag in the group receiving Compound 1 of the present invention was reduced to 2.0±0.4 seconds, showing a significant effect of ameliorating vesicourethral dyssynergia.

Test [4] relates to model rat having spinal cord injury (female Wistar rats). The test is described as follows: Effect on voiding dysfunction based on vesicourethral dyssynergia in spinal cord injury model rat (Test Example 3). Conditions: spinal cord injury model (Th8-9); 250 mg/kg p.o. once a day for four weeks; vs control group (6% Gelucire). Here is the method:
The effect of Compound 1 of the present invention on dysuria was evaluated using a model rat having spinal cord injury, which is a typical disease causing dysuria due to vesicourethral dyssynergia.
The dysuria models in this example were prepared by placing a 40 g weight on the spinal cord in the eighth to ninth thoracic vertebrae (Th8-9) of 7-week-old female Wistar rats for 30 minutes.
The test drugs (vehicle: 6% Gelucire, Compound 1 of the present invention 250 mg/kg) were orally administered to each group from the day following the preparation of the models once a day for four weeks. On the day following the final administration, cystometry was performed in a wakeful state, thereby evaluating the voiding function (micturition efficiency).

Turning to `CC(C[N+](C)(C)C)OC(N)=O` (centres unmarked) [Bethanechol, bethanechol], the “effect on extension of the time lag between the bladder contraction and the urethra relaxation” value in test [1] was “no effects”. `CC1=C(CCCCCCCCCCCCCCCO)C(C)(C)CCC1=O` [Compound 1 of the present invention, 3-(15-hydroxypentadecyl)-2,4,4-trimethyl-2-cyclohexene-1-one]: the Maximum voided volme in test [2] is reported as 4.44 ± 0.85* mL. Moreover, the “time lag between the bladder contraction and the urethra relaxation” value in test [3] was 2.0 ± 0.4 s. For the same molecule, the “micturition efficiency (cystometry in a wakeful state)” value in test [4] is given as “significant increase in micturition efficiency”. `CCOc1ccccc1OCCN[C@H](C)Cc1ccc(OC)c(S(N)(=O)=O)c1` [tamsulosin]: the “effect on extension of the time lag between the bladder contraction and the urethra relaxation” value in test [1] is reported as “no effects”.
